Assay results taken from patent US20260183302A1, “PDK1 REGULATORY COMPOUND AND COMPOSITION CONTAINING THE SAME” (PROVIBIO CO., LTD., priority 2024, published 2026).
“Also recorded” adds a separate entry of the source.

Legend:
[1] = system: T cells isolated from mouse spleens; test: T cell proliferation inhibition (CFSE flow cytometry, anti-CD3/anti-CD28 stimulation); format: cell-based, C57BL/6 mice; details: three days
Method in brief: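 Splenic T cells from 7-week-old C57BL/6 mice, CFSE-labelled, 2× 10^5 cells/well, stimulated with anti-CD3 and anti-CD28 (0.5 μg/mL each). Compound at 10 nM-50 μM in triplicate for three days at 37 °C, 5% CO2; proliferation inhibition (%) derived by flow cytometry.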

[2] = system: HCT-116 colon cancer cell lines; test: Matrigel Invasion Assay on HCT-116 colon cancer cell line; format: cell-based, human; details: HCT-116, Matrigel, 24 hours treatment, vs DMSO
Protocol: To evaluate the metastasis inhibitory efficacy of the compounds of the present invention on HCT-116 colon cancer cell lines, an Invasion Assay using Matrigel was performed to assess the cells' invasion ability.
First, Matrigel was thawed on ice in RPMI-1640 medium without FBS, then diluted with DMEM at a ratio of 1:20.
The diluted Matrigel mixture was applied to the upper chamber at 100 μl per well, and 750 μl of RPMI-1640 without FBS was added to the lower chamber.
The plates were then incubated at 37° C. for 1 hour to allow the Matrigel to solidify.
After coating, the Matrigel mixture in the upper chamber was removed using a pipette, and the chamber was washed with RPMI without FBS.
Human-derived colorectal cancer cell line HCT-116, obtained from the Korean Cell Bank, was cultured in RPMI-1640 medium containing 10% FBS.
Following stabilization, the cells were harvested using Trypsin-EDTA treatment, centrifuged at 1,200 rpm for 3 minutes, the supernatant was removed, and the cells were resuspended in the same medium, the medium in the lower chamber was replaced with 750 μl of RPMI-1640 supplemented with 10% FBS, and the cells were seeded into the upper chamber at a density of 5×10^4 cells/well.
The cells were cultured for 24 hours after attachment, and then the compounds according to the present invention (G078, G085, G086, G088, G089, PBK-2024-010, PBK-2025-010, PBK-2025-013, PBK-2025-016) and the control substance DMSO were diluted and added to the upper chamber after removing the medium.
Additionally, the medium in the lower chamber was replaced with fresh RPMI-1640 containing FBS, and the culture was continued.
After an additional 24 hours, the medium was removed, and 1 ml of methanol was added for 10 minutes to fix the cells.
Subsequently, 1 ml of Hematoxylin was added and reacted for 5 minutes, followed by 1 ml of Eosin, which was reacted for 30 seconds. The sample was then washed with distilled water (DW).
After staining was complete, any remaining cells in the upper chamber were removed. Finally, the infiltrated cells were observed under a microscope, photographed, and the degree of infiltration was analyzed.

[3] = system: PDK1 phosphorylation in SU-DHL-8 cells; test: PDK1 phosphorylation inhibition by flow cytometry (pPDK1-PE) in SU-DHL-8 cells; format: cell-based, human; details: SU-DHL-8, 24 hours, vs control group, listed as GO48
Protocol: After stabilizing the cells, the compound of the present invention was added, and the cells were cultured for 24 hours.
After drug treatment, the cells were harvested, and the Fc receptor blocking process was performed. The cells were then fixed and permeabilized using the Intracellular Staining Kit (Cat. No. BD554715) from BD Biosciences. Subsequently, the intracellular pPDK1 was stained using the pPDK1-PE fluorescently labeled antibody (BD Biosciences).
Referring to the figure, the vertical axis represents the phosphorylation level of PDK1 (phospho-PDK1 expression level), and the horizontal axis denotes the concentration-dependent treatment conditions of each compound.

[4] = system: MRL/lpr mice with hair loss in the facial region; test: Hair loss treatment and hair follicle Ki-67 IHC in MRL/lpr mice; format: in vivo; details: 41-week-old female MRL/lpr; GO15F (30 mg/kg), GO48 (1 mg/kg), GO88 (0.5 mg/kg) intraperitoneal once daily
Protocol: Additionally, in 41-week-old female MRL/Ipr mice, the compounds GO15F (30 mg/kg), GO48 (1 mg/kg), and GO88 (0.5 mg/kg) were administered intraperitoneally once daily.
To confirm the proliferative activity of hair follicle cells in the skin tissue of these mice, the mice were sacrificed 14 days after administration of the compounds of the present invention, and Ki-67 immunohistochemistry (IHC) was performed.
For this purpose, the excised skin tissue was fixed in formalin, embedded in paraffin blocks, and stained with a Ki-67-specific antibody on tissue sections prepared as slides.

[5] = system: Human B Lymphocyte cell line, SU-DHL-8; test: Relative cell viability, SU-DHL-8 (CCK-8); format: cell-based; details: 48 hours, untreated (DMSO) = 100%
Protocol: Human-derived B lymphoma cell line SU-DHL-8 (Cat. #CRL-2961) purchased from ATCC was cultured in RPMI-1640 medium containing 10% FBS, 100 U/mL penicillin, and 100 μg/mL streptomycin.
The cell culture medium was then harvested, centrifuged at 1,300 rpm for 5 minutes, and the supernatant was removed. The cells were resuspended in the same medium and dispensed into a 96-well plate (Costar 96-well cell culture plate, Corning) at 90 μL per well, resulting in the conditions specified in Table 5.
Then, 10 μL of CCK-8 was added to each well, and the plates were incubated again at 37° C. in a 5% CO2 incubator for 4 hours.
In other words, when the survival rate of untreated cells (DMSO) is set at 100%, the relative cell survival rate in each group treated with the drug at different concentrations is indicated.

Q: Which “Proliferation inhibition rate (%)” value ([1]; concentration 10 nM) does the source give for “12-(4-hydroxypiperazin-1-yl)dodecyl-N-(6-aminopurazin-2-yl) carboxamide [Compound 10]” here?
A: 100.00%

Q: What about the “Proliferation inhibition rate (%)” value ([1]; concentration 100 nM) of the same compound?
A: 100.00%

Q: And the “Proliferation inhibition rate (%)” value ([1]; concentration 1 μM)?
A: 100.00%

Q: What about the “Proliferation inhibition rate (%)” value ([1]; concentration 10 μM) of the same compound?
A: 100.00%

Q: And the “Proliferation inhibition rate (%)” value ([1]; concentration 30 μM)?
A: 100.00%

Q: And the “Proliferation inhibition rate (%)” value ([1]; concentration 50 μM)?
A: 100.00%

Q: And the “number of infiltrated cells (invasion)” value [2]?
A: reduction in the number of infiltrated cells

Q: What does the source list for `Nc1ncccc1C(=O)NCCCCCCCCCCCCN1CCOCC1` [Compound 2, 2-amino-N-(12-morpholin-4-yl-dodecyl)-nicotinamide]?
A: phospho-PDK1 expression level [3]: stronger PDK1 inhibition; also recorded: high inhibitory effects even at low concentrations; hair growth on the facial region [4]: hair growth was confirmed

Q: With `Nc1ncccc1C(=O)NCCCCCCCCCCCCN1CCNCC1` [Compound 5, 2-Amino-N-(12-(piperazin-1-yl)dodecyl)-nicotinamide] as the compound, how does the “number of infiltrated cells (invasion)” value [2] read?
A: reduction in the number of infiltrated cells

Q: How did the “number of infiltrated cells (invasion)” value [2] turn out when `O=C(NCCCCCCCCCCCCN1CCN2CCCC2C1)c1cccnc1` (stereo not drawn) [Compound 23, N-(12-(hexahydropyrrolo[1,2-a]pyrazin-2 (1H)-yl)dodecyl) nicotinamide] was run?
A: reduction in the number of infiltrated cells

Q: What does the source list for `CC(C)(C)OC(=O)N[C@H]1CCN(CCCCCCCCCCCCNC(=O)c2cccnc2N)C1` [Compound 49, tert-Butyl(S)-(1-(12-(2-aminonicotinamido)dodecyl)pyrrolidin-3-yl) carbamate]?
A: Proliferation inhibition rate (%) ([1]; concentration 100 nM): 100.00%; Proliferation inhibition rate (%) ([1]; concentration 1 μM): 100.00%; Proliferation inhibition rate (%) ([1]; concentration 10 μM): 100.00%; Proliferation inhibition rate (%) ([1]; concentration 30 μM): 100.00%; Proliferation inhibition rate (%) ([1]; concentration 50 μM): 100.00%; Relative cell viability (%) ([5]; SU-DHL-8, 1 μM): 8.93%; Relative cell viability (%) ([5]; SU-DHL-8, 10 μM): 8.02%; Relative cell viability (%) ([5]; SU-DHL-8, 30 μM): 7.48%; Relative cell viability (%) ([5]; SU-DHL-8, 50 μM): 4.09%; number of infiltrated cells (invasion) [2]: reduction in the number of infiltrated cells

Q: Which “number of infiltrated cells (invasion)” value [2] does the source give for `Nc1ncccc1C(=O)NCCCCCCCCCCCCN1CC(F)C1` [Compound 52, 2-Amino-N-(12-(3-fluoroazetidin-1-yl)dodecyl)nicotinamide] here?
A: reduction in the number of infiltrated cells

Q: Which results are given for `COC1CCN(CCCCCCCCCCCCNC(=O)c2cccnc2N)C1` (stereo not drawn) [Compound 126, 2-amino-N-(12-(3-methoxypyrrolidin-1-yl)dodecyl) nicotinamide]?
A: Proliferation inhibition rate (%) ([1]; concentration 10 nM, listed as K-PB-48, 0.01 µM): 0.00%; Proliferation inhibition rate (%) ([1]; concentration 100 nM): 100.00%; Proliferation inhibition rate (%) ([1]; concentration 1 μM): 100.00%; Proliferation inhibition rate (%) ([1]; concentration 10 μM): 100.00%; Proliferation inhibition rate (%) ([1]; concentration 30 μM): 100.00%; Proliferation inhibition rate (%) ([1]; concentration 50 μM): 100.00%; Relative cell viability (%) ([5]; SU-DHL-8, 1 μM, listed as K-PB-48, 1 µM): 33.03%; Relative cell viability (%) ([5]; SU-DHL-8, 10 μM, listed as K-PB-48, 10 µM): 31.98%; Relative cell viability (%) ([5]; SU-DHL-8, 30 μM, listed as K-PB-48, 30 µM): 32.32%; Relative cell viability (%) ([5]; SU-DHL-8, 50 μM, listed as K-PB-48, 50 µM): 30.44%

Q: Which “Proliferation inhibition rate (%)” value ([1]; concentration 10 nM) does the source give for `Nc1ncccc1C(=O)NCCCCCCCCCCCCN1CC=CC1` [Compound 129, 2-amino-N-(12-(2,5-dihydro-1H-pyrrol-1-yl)dodecyl) nicotinamide] here?
A: 0.00%

Q: What about the “Proliferation inhibition rate (%)” value ([1]; concentration 100 nM) of the same compound?
A: 90.00%

Q: And the “Proliferation inhibition rate (%)” value ([1]; concentration 1 μM)?
A: 100.00%

Q: And the “Proliferation inhibition rate (%)” value ([1]; concentration 10 μM)?
A: 100.00%

Q: And the “Proliferation inhibition rate (%)” value ([1]; concentration 30 μM)?
A: 100.00%

Q: What about the “Proliferation inhibition rate (%)” value ([1]; concentration 50 μM) of the same compound?
A: 100.00%

Q: And the “Relative cell viability (%)” value ([5]; SU-DHL-8, 1 μM)?
A: 34.26%

Q: And the “Relative cell viability (%)” value ([5]; SU-DHL-8, 10 μM)?
A: 33.99%

Q: What about the “Relative cell viability (%)” value ([5]; SU-DHL-8, 30 μM) of the same compound?
A: 35.05%

Q: And the “Relative cell viability (%)” value ([5]; SU-DHL-8, 50 μM)?
A: 34.27%
